Experimental data taken from PMC3907537, “Evaluation of the Endothelin Receptor Antagonists Ambrisentan, Bosentan, Macitentan, and Sitaxsentan as Hepatobiliary Transporter Inhibitors and Substrates in Sandwich-Cultured Human Hepatocytes” (PLoS ONE, 2014).

Key:
[1] = test system: sandwich-cultured human hepatocytes; assay: Effect of ERAs on endogenous glycochenodeoxycholic acid (GCDCA) distribution in sandwich-cultured human hepatocytes; type: cell-based; conditions: 24 h, mean ± standard error, n=3 human livers
Method: Sandwich-cultured human hepatocytes were obtained from Celsis/IVT (Baltimore, MD) or Life Technologies (Durham, NC). […] Hepatic uptake, biliary excretion and in vitro biliary clearance (Clb) were determined using the B-CLEAR® hepatocyte sandwich culture model as described by Liu et al., 1999 [34]. In this system, hepatocytes form functional bile canalicular networks while maintaining the expression and function of key uptake and efflux transporters. The canalicular system of bile pockets remains separate from the cellular culture media due to tight junctions between cells. The integrity of these tight junctions is maintained in the presence of calcium (Plus (+) buffer) while in the absence of calcium (Minus (−) buffer), these tight junctions open and release the contents of the canalicular network into the media.
(§1) Incubation solutions containing ERA (1, 10 and 100 µM) were prepared in cell culture medium. On the sixth day of culturing of the sandwich-cultured hepatocytes, cell culture medium was removed from the wells and incubation solutions containing the test ERAs were added to the cells. The cells were incubated with ERA solution for 24 h at 37°C. After the exposure, the incubation solutions were removed and the cells were rinsed with Plus (+) or Minus (−) buffer. The buffer solutions were then removed and the cells were incubated with fresh Plus (+) or Minus (−) buffer for 5 min at 37°C. Following this 5 minute incubation, the buffer solutions were collected and any remaining buffers were removed. The cells were then washed three times with ice-cold Plus (+) buffer and the plates were frozen at −80°C until processed for bioanalysis.
(§2) Study samples were stored in their original 24-well plates at −80°C until prepared for analysis. A volume of 500 µL of cell lysis solution (70∶30 methanol:water) containing 25 nM internal standard was added to each well and mixed for 20 min of mixing. The volume in each well was then transferred to a 96-well filter plate stacked on a Greiner deep well collection plate. The filter plate/collection plate was then centrifuged at 2000 rcf for 5 min. The filtrate was then evaporated to dryness under nitrogen. Samples were reconstituted in 200 µL of sample diluent (60∶40 methanol:10 mM ammonium acetate, native pH), sealed, and placed on a plate shaker for 15 min. These samples were then transferred to a Whatman 96-well 0.45 µm PVDF filter plate stacked on a Costar 3956 plate (HPLC injection plate), centrifuged at 2000 rcf for 2–3 min, and sealed with a silicon cap mat prior to LC-MS/MS analysis. d8-TCA standard spiking solutions were prepared in 50∶50 methanol:water. For a given lysate standard or control, 10 µL was added to each well of a previously frozen analytical plate. Standards representing 0.5–100 pmoles/well and QC’s at the LLQ and ULQ were prepared. These lysate standards and controls were then further processed as described above for unknown study samples. Prepared samples were filtered and analyzed by LC-MS/MS using a Shimadzu binary HPLC system (Columbia, MD) and tandem mass spectrometry using Thermo Electron TSQ® Quantum Discovery MAX™ (Waltham, MA) with an Ion Max ESI source operating in negative ion electrospray ionization mode. Results for unknowns and QCs were calculated using a standard curve based on an internal standard processing method.
(§3) Statistical comparisons across ERA treatments were performed using analysis of variance (ANOVA) with Fisher’s PLSD post hoc analysis (Statview 5.0, SAS Institute, Cary NC); statistical significance was considered to be P<0.05. All mass values were normalized to mg protein by taking the average protein mass in the taurocholate plate determined using a BCA protein assay (Pierce Biotechnology, Rockford, IL). Cellular accumulation determined in Minus (−) buffer (Accumulation Minus (−) Buffer) represents the total mass of analyte inside the hepatocyte at the end of the incubation time period. […]

[2] = test system: sandwich-cultured human hepatocytes; assay: Effect of ERAs on endogenous glycocholic acid (GCA) distribution in sandwich-cultured human hepatocytes; type: cell-based; conditions: 24 h, mean ± standard error, n=3 human livers
Method: Sandwich-cultured human hepatocytes were obtained from Celsis/IVT (Baltimore, MD) or Life Technologies (Durham, NC). Donors were male (n = 3) and female (n = 1) between the ages of 31 and 62 years old. Hepatic uptake, biliary excretion and in vitro biliary clearance (Clb) were determined using the B-CLEAR® hepatocyte sandwich culture model as described by Liu et al., 1999 [34]. In this system, hepatocytes form functional bile canalicular networks while maintaining the expression and function of key uptake and efflux transporters. The canalicular system of bile pockets remains separate from the cellular culture media due to tight junctions between cells. The integrity of these tight junctions is maintained in the presence of calcium (Plus (+) buffer) while in the absence of calcium (Minus (−) buffer), these tight junctions open and release the contents of the canalicular network into the media.
as §1, §2
as §3, with “IL).” for “IL). Cellular accumulation determined in Minus (−) buffer (Accumulation Minus (−) Buffer) represents the total mass of analyte inside the hepatocyte at the end of the incubation time period.”

SMILES	GCDCA BEI (% Control) ([1]; 1 µM)	GCDCA Cellular Accumulation (% Control) ([1]; 1 µM)	GCDCA Medium Concentration (% Control) ([1]; 1 µM)	GCDCA Total Accumulation (% Control) ([1]; 1 µM)	GCDCA BEI (% Control) ([1]; 10 µM)	GCDCA Cellular Accumulation (% Control) ([1]; 10 µM)	GCDCA Medium Concentration (% Control) ([1]; 10 µM)	GCDCA Total Accumulation (% Control) ([1]; 10 µM)	GCDCA BEI (% Control) ([1]; 100 µM)	GCDCA Cellular Accumulation (% Control) ([1]; 100 µM)	GCDCA Medium Concentration (% Control) ([1]; 100 µM)	GCDCA Total Accumulation (% Control) ([1]; 100 µM)	GCA BEI (% Control) ([2]; 1 µM)	GCA Cellular Accumulation (% Control) ([2]; 1 µM)	GCA Medium Concentration (% Control) ([2]; 1 µM)	GCA Total Accumulation (% Control) ([2]; 1 µM)	GCA BEI (% Control) ([2]; 10 µM)	GCA Cellular Accumulation (% Control) ([2]; 10 µM)	GCA Medium Concentration (% Control) ([2]; 10 µM)	GCA Total Accumulation (% Control) ([2]; 10 µM)	other results
CCCNS(=O)(=O)Nc1ncnc(OCCOc2ncc(Br)cn2)c1-c1ccc(Br)cc1 [macitentan]	98.7 ± 14.8 % Control	88.7 ± 0.8 % Control	111.0 ± 9.0 % Control	90.0 ± 4.0 % Control	89.4 ± 14.2 % Control	52.1 ± 2.6 % Control	98.7 ± 10.1 % Control	48.9 ± 0.9 % Control	37.5 ± 21.9 % Control	11.4 ± 3.2 % Control	51.8 ± 7.1 % Control	8.38 ± 1.4 % Control	96.9 ± 17.6 % Control	81.7 ± 10.7 % Control	101.0 ± 3.3 % Control	84.6 ± 12.6 % Control	54.9 ± 10.3 % Control	62.7 ± 10.5 % Control	88.9 ± 1.8 % Control	46.5 ± 8.3 % Control	GCA BEI (% Control) ([2]; 100 µM): 39.4 ± 12.3 % Control; GCA Cellular Accumulation (% Control) ([2]; 100 µM): 38.1 ± 13.6 % Control; GCA Medium Concentration (% Control) ([2]; 100 µM): 52.6 ± 1.2 % Control; GCA Total Accumulation (% Control) ([2]; 100 µM): 24.7 ± 7.8 % Control
Cc1cc2c(cc1CC(=O)c1sccc1S(=O)(=O)Nc1onc(C)c1Cl)OCO2 [sitaxsentan]	112.0 ± 19.8 % Control	89.8 ± 10.8 % Control	110.0 ± 9.2 % Control	99.3 ± 11.0 % Control	85.7 ± 8.4 % Control	79.4 ± 12.4 % Control	105.0 ± 11.9 % Control	73.8 ± 10.5 % Control	55.5 ± 34.3 % Control	14.5 ± 2.7 % Control	76.5 ± 8.3 % Control	12.4 ± 3.0 % Control	100.0 ± 18.3 % Control	90.9 ± 6.5 % Control	104.0 ± 8.1 % Control	98.6 ± 16.1 % Control	84.2 ± 6.0 % Control	69.8 ± 11.1 % Control	92.8 ± 3.8 % Control	60.3 ± 7.2 % Control	GCA BEI (% Control) ([2]; 100 µM): 61.7 ± 12.2 % Control; GCA Cellular Accumulation (% Control) ([2]; 100 µM): 18.6 ± 6.9 % Control; GCA Medium Concentration (% Control) ([2]; 100 µM): 75.0 ± 3.5 % Control; GCA Total Accumulation (% Control) ([2]; 100 µM): 14.4 ± 5.4 % Control
COC(c1ccccc1)(c1ccccc1)[C@H](Oc1nc(C)cc(C)n1)C(=O)O [ambrisentan]	95.1 ± 16.3 % Control	104.0 ± 3.0 % Control	110.0 ± 7.6 % Control	103.0 ± 8.1 % Control	81.3 ± 11.0 % Control	83.6 ± 11.6 % Control	109.0 ± 16.0 % Control	75.7 ± 8.0 % Control	76.0 ± 38.1 % Control	27.6 ± 3.4 % Control	103.0 ± 2.3 % Control	26.3 ± 5.7 % Control	90.3 ± 13.5 % Control	93.0 ± 9.3 % Control	101.0 ± 3.5 % Control	87.2 ± 10.8 % Control	75.4 ± 8.6 % Control	88.2 ± 15.5 % Control	91.3 ± 7.5 % Control	73.0 ± 8.4 % Control	GCA BEI (% Control) ([2]; 100 µM): 65.9 ± 6.8 % Control; GCA Cellular Accumulation (% Control) ([2]; 100 µM): 48.8 ± 10.8 % Control; GCA Medium Concentration (% Control) ([2]; 100 µM): 95.7 ± 6.7 % Control; GCA Total Accumulation (% Control) ([2]; 100 µM): 39.1 ± 11.9 % Control
COc1ccccc1Oc1c(NS(=O)(=O)c2ccc(C(C)(C)C)cc2)nc(-c2ncccn2)nc1OCCO [bosentan]	94.5 ± 12.4 % Control	88.0 ± 5.9 % Control	114.0 ± 9.9 % Control	86.8 ± 3.5 % Control	65.7 ± 21.7 % Control	54.8 ± 4.4 % Control	109.0 ± 14.7 % Control	47.2 ± 2.3 % Control	56.8 ± 11.9 % Control	30.3 ± 6.7 % Control	126.0 ± 7.9 % Control	25.4 ± 6.0 % Control	85.9 ± 12.6 % Control	78.4 ± 14.5 % Control	99.6 ± 2.1 % Control	71.9 ± 12.9 % Control	32.3 ± 30.1 % Control	55.1 ± 14.4 % Control	85.5 ± 6.3 % Control	35.9 ± 5.3 % Control	GCA BEI (% Control) ([2]; 100 µM): 35.4 ± 13.9 % Control; GCA Cellular Accumulation (% Control) ([2]; 100 µM): 25.6 ± 8.4 % Control; GCA Medium Concentration (% Control) ([2]; 100 µM): 77.1 ± 10.1 % Control; GCA Total Accumulation (% Control) ([2]; 100 µM): 17.4 ± 6.1 % Control
